From EP0554004A2, “Cephem compounds and antibacterial agents” (KATAYAMA SEIYAKUSYO CO. Ltd., priority 1992, dated 1993)
Converted amounts (≈) assume the structure as drawn.

Tests used:
A. calcoaceticos T59 = assay: MIC against standard strains (Test Example 3); format: cell-based; conditions: A. calcoaceticos T59 (Test Example 3); read-out: MIC
Procedure: (§1) By using each test strain cultured overnight at 37°C in a Muller-Hinton broth, there was prepared a bacterial solution with a bacterial cell population of 1 x 10^6 CFU/mi of the same bouillon. The bacterial solution was inoculated into the Muller-Hinton agar media each containing respectively one test agent and, after overnight incubation at 37°C, the minimum concentration that inhibited growth of the bacteria was determined and shown as MIC also in Table 1.
(§2) The minimum growth inhibitory concentration was determined for each of the 21 standard strains shown in Table 3, according to the same method as used in Test Example 1.
(§3) In the test, FMOX (flomoxef), CTM (cefotiam) and CEZ (cefazolin) were used as control agents.

E. cloacae ATCC13407 = assay: MIC against standard strains (Test Example 3); format: cell-based; conditions: Enterobacter cloacae; E. cloacae ATCC13407 (Test Example 3); read-out: MIC
Procedure: as §1, §2, §3

E. coli NIHJ JC-2 = assay: MIC against standard strains (Test Example 3); format: cell-based; conditions: Escherichia coli, NIHJJC2; E. coli NIHJ JC-2 (Test Example 3); read-out: MIC
Procedure: as §1, §2, §3

S. aureus Smith = assay: MIC against standard strains (Test Example 3); format: cell-based; conditions: Staphylococcus aureus; S. aureus Smith (Test Example 3); read-out: MIC
Procedure: as §1, §2, §3

E. coli CSH2 (RE45) = assay: MIC against standard strains (Test Example 3); format: cell-based; conditions: Escherichia coli
Procedure: as §1, §2, §3

P. mirabilis IFO3849 = assay: MIC against standard strains (Test Example 3); format: cell-based; conditions: Proteus mirabilis; P. mirabilis IFO3849 (Test Example 3); read-out: MIC
Procedure: as §1, §2, §3

S. epidemidis IAM1296 = assay: MIC against standard strains (Test Example 3); format: cell-based; conditions: S. epidemidis IAM1296 (Test Example 3); read-out: MIC
Procedure: as §1, §2, §3

M. Morganii IFO3848 = assay: MIC against standard strains (Test Example 3); format: cell-based; conditions: Morganella morganii; M. Morganii IFO3848 (Test Example 3); read-out: MIC
Procedure: as §1, §2, §3

A. faecalis ATCC3750 = assay: MIC against standard strains (Test Example 3); format: cell-based; conditions: Alcaligenes faecalis; A. faecalis ATCC3750 (Test Example 3); read-out: MIC
Procedure: as §1, §2, §3

E. coli CSH2 (RK1) = assay: MIC against standard strains (Test Example 3); format: cell-based; conditions: Escherichia coli
Procedure: as §1, §2, §3

K. pneumoniae IFO3317 = assay: MIC against standard strains (Test Example 3); format: cell-based; conditions: Klebsiella pneumoniae; K. pneumoniae IFO3317 (Test Example 3); read-out: MIC
Procedure: as §1, §2, §3

B. subtilis ATCC6633 = assay: MIC against standard strains (Test Example 3); format: cell-based; conditions: Bacillus subtilis; B. subtilis ATCC6633 (Test Example 3); read-out: MIC
Procedure: as §1, §2, §3

P. vulugaris OX-19 = assay: MIC against standard strains (Test Example 3); format: cell-based; conditions: P. vulugaris OX-19 (Test Example 3); read-out: MIC
Procedure: as §1, §2, §3

S. aureus 167 = assay: MIC against standard strains (Test Example 3); format: cell-based; conditions: Staphylococcus aureus; S. aureus 167 (MRSA) (Test Example 3); read-out: MIC
Procedure: as §1, §2, §3

S. aureus 209p JC-1 = assay: MIC against standard strains (Test Example 3); format: cell-based; conditions: Staphylococcus aureus; S. aureus 209p JC-1 (Test Example 3); read-out: MIC
Procedure: as §1, §2, §3

K. pneumoniae No. 42 = assay: MIC against standard strains (Test Example 3); format: cell-based; conditions: Klebsiella pneumoniae; K. pneumoniae No. 42 (Test Example 3); read-out: MIC
Procedure: as §1, §2, §3

C. freundii ATCC8090 = assay: MIC against standard strains (Test Example 3); format: cell-based; conditions: Citrobacter freundii; C. freundii ATCC8090 (Test Example 3); read-out: MIC
Procedure: as §1, §2, §3

S. marcescens IAM1184 = assay: MIC against standard strains (Test Example 3); format: cell-based; conditions: Serratia marcescens; S. marcescens IAM1184 (Test Example 3); read-out: MIC
Procedure: as §1, §2, §3

S. aureus 195 = assay: MIC against standard strains (Test Example 3); format: cell-based; conditions: Staphylococcus aureus; S. aureus 195 (MRSA) (Test Example 3); read-out: MIC
Procedure: as §1, §2, §3

P. aeruginosa NCTC10490 = assay: MIC against standard strains (Test Example 3); format: cell-based; conditions: Pseudomonas aeruginosa; P. aeruginosa NCTC10490 (Test Example 3); read-out: MIC
Procedure: as §1, §2, §3

M. luteus ATCC 9341 = assay: MIC against standard strains (Test Example 3); format: cell-based; conditions: Micrococcus luteus, ATCC9341; M. luteus ATCC 9341 (Test Example 3); read-out: MIC
Procedure: as §1, §2, §3

clinically isolated MRSA [1] = assay: Antibacterial potency against clinically isolated MRSA (Test Example 4); format: cell-based, methicillin-resistant Staphylococcus aureus; conditions: Staphylococcus aureus
Procedure: (§4) 52 strains of clinically isolated MRSA were used, and MIC was determined for each of the strains according to the standard method of the Japan Chemotherapical Society as in Test Example 1. The minimum growth inhibitory concentration which inhibited growth of 50% of the strains tested was expressed as MIC50 (µg/ml), and the minimum growth inhibitory concentration which inhibited growth of 90% of the strains was expressed as MIC90 (µg/ml).
MIC 50 and MIC 90 were determined for each of the 52 strains of clinically isolated MRSA according to the same method as used in Test Example 2.
VCM (vancomycin) was used as control agent.

clinically isolated MRSA [2] = assay: Antibacterial potency against clinically isolated MRSA (Test Example 2); format: cell-based, methicillin-resistant Staphylococcus aureus; conditions: Staphylococcus aureus, 52 strains of clinically isolated MRSA; for MIC50: concentration inhibiting growth of 50% of the strains (Test Example 2); for MIC90: concentration inhibiting growth of 90% of the strains (Test Example 2)
Procedure: A test on the antibacterial potency against clinically isolated MRSA was conducted in the following way.
as §4
In this test, FMOX (flomoxef), IPM/CS (imipenem/cilastatin), CMZ (cefmetazole), MINO (minocycline) and DMPPC (methicillin) were used as control agents.

[3] = 52 strains of clinically isolated MRSA, concentration inhibiting growth of 50% of the strains (Test Example 4), read-out: MIC50
[4] = 52 strains of clinically isolated MRSA, concentration inhibiting growth of 90% of the strains (Test Example 4), read-out: MIC90

Row | Compound | MIC (A. calcoaceticos T59) [µg/mL] | MIC (E. cloacae ATCC13407) [µg/mL] | MIC (E. coli NIHJ JC-2) [µg/mL] | MIC (S. aureus Smith) [µg/mL] | MIC (E. coli CSH2 (RE45)) [µg/mL] | MIC (P. mirabilis IFO3849) [µg/mL] | MIC (S. epidemidis IAM1296) [µg/mL] | MIC (M. Morganii IFO3848) [µg/mL] | MIC (A. faecalis ATCC3750) [µg/mL] | MIC (E. coli CSH2 (RK1)) [µg/mL] | MIC (K. pneumoniae IFO3317) [µg/mL] | MIC (B. subtilis ATCC6633) [µg/mL] | MIC (P. vulugaris OX-19) [µg/mL] | MIC (S. aureus 167) [µg/mL] | MIC (S. aureus 209p JC-1) [µg/mL] | MIC (K. pneumoniae No. 42) [µg/mL] | MIC (C. freundii ATCC8090) [µg/mL] | MIC (S. marcescens IAM1184) [µg/mL] | MIC (S. aureus 195) [µg/mL] | MIC (P. aeruginosa NCTC10490) [µg/mL] | other results
1 | NC(=O)Cc1ccc[n+](CC2=C(C(=O)[O-])N3C(=O)[C@@H](NC(=O)/C(=N\O)c4csc(N)n4)[C@H]3SC2)c1 [Compound (7), 7β-[2-(2-aminothiazol-4-yl)-2-syn-hydroxyiminoacetamido]-3-[(3-carbamoylmethyl-1-pyridinio)methyl]-3-cephem-4-carboxylic acid chloride] | 3.13 | 0.39 | 0.2 | 0.39 | 0.2 | 0.2 | 0.1 | 0.1 | 1.56 | 0.78 | 0.2 | 0.39 | 0.39 | 12.5 | 0.2 | 0.39 | 0.2 | 0.2 | 3.13 | 1.56 | MIC (M. luteus ATCC 9341): 0.1 µg/mL; MIC50 (clinically isolated MRSA [1]; [3]): 2.04 µg/mL; MIC90 (clinically isolated MRSA [1]; [4]): 5.44 µg/mL
2 | CN[C@H](CC(C)C)C(=O)N[C@H]1C(=O)N[C@@H](CC(N)=O)C(=O)N[C@H]2C(=O)N[C@H]3C(=O)N[C@H](C(=O)N[C@H](C(=O)O)c4cc(O)cc(O)c4-c4cc3ccc4O)[C@H](O)c3ccc(c(Cl)c3)Oc3cc2cc(c3O[C@@H]2O[C@H](CO)[C@@H](O)[C@H](O)[C@H]2O[C@H]2C[C@](C)(N)[C@H](O)[C@H](C)O2)Oc2ccc(cc2Cl)[C@H]1O [VCM, vancomycin, reference compound] |  |  |  |  |  |  |  |  |  |  |  |  |  |  |  |  |  |  |  |  | MIC50 (clinically isolated MRSA [1]; MRSA): 0.74 µg/mL (≈ 0.511 µM); MIC90 (clinically isolated MRSA [1]; MRSA): 1.38 µg/mL (≈ 0.952 µM)
3 | CCN(CC)C(=O)c1ccc[n+](CC2=C(C(=O)[O-])N3C(=O)[C@@H](NC(=O)/C(=N\O)c4csc(N)n4)[C@H]3SC2)c1 [Compound (14), 7β-[2-(2-aminothiazol-4-yl)-2-syn-hydroxyiminoacetamido]-3-[(3-N,N-diethylcarbamoyl-I-pyridinio)methyl]-3-cephem-4-carboxylic acid chloride] | 12.5 | 3.13 | 0.78 | 0.78 | 0.78 | 1.56 | 0.39 | 0.39 | 3.13 | 3.13 | 0.78 | 0.39 | 0.78 | 12.5 | 0.78 | 3.13 | 0.78 | 0.78 | 6.25 | 6.25 | MIC (M. luteus ATCC 9341): 0.2 µg/mL; MIC50 (clinically isolated MRSA [1]; [3]): 6.77 µg/mL; MIC90 (clinically isolated MRSA [1]; [4]): 11.8 µg/mL
4 | COc1cccc(OC)c1C(=O)N[C@@H]1C(=O)N2[C@@H]1SC(C)(C)[C@@H]2C(=O)O [DMPPC, methicillin, reference compound] |  |  |  |  |  |  |  |  |  |  |  |  |  |  |  |  |  |  |  |  | MIC50 (clinically isolated MRSA [2]): 42.5 µg/mL (≈ 112 µM); MIC90 (clinically isolated MRSA [2]): > 100 µg/mL
5 | CO[C@@]1(NC(=O)CSCC#N)C(=O)N2C(C(=O)O)=C(CSc3nnnn3C)CS[C@@H]21 [CMZ, cefmetazole, reference compound] |  |  |  |  |  |  |  |  |  |  |  |  |  |  |  |  |  |  |  |  | MIC50 (clinically isolated MRSA [2]): 16.8 µg/mL (≈ 35.6 µM); MIC90 (clinically isolated MRSA [2]): 49.8 µg/mL (≈ 106 µM)
6 | CNc1nc(-c2cc[n+](CC3=C(C(=O)[O-])N4C(=O)[C@@H](NC(=O)/C(=N\O)c5csc(N)n5)[C@H]4SC3)cc2)cs1 [Compound (12), 7β-[2-(2-aminothiazol-4-yl)-2-syn-hydroxyiminoacetamido]-3-[[4-(2-methylaminothiazol-4-yl)-1-pyridinio]methyl]-3-cephem-4-carboxylic acid chloride] | 50 | 1.56 | 0.2 | 0.39 | 0.2 | 0.78 | 0.2 | 0.05 | 1.56 | 0.39 | 0.1 | 0.2 | 0.1 | 5.25 | 0.39 | 0.78 | 0.39 | 0.78 | 3.13 | 12.5 | MIC (M. luteus ATCC 9341): 0.05 µg/mL; MIC50 (clinically isolated MRSA [1]; [3]): 1.86 µg/mL; MIC90 (clinically isolated MRSA [1]; [4]): 4.61 µg/mL
7 | CN(C)c1ccc(O)c2c1C[C@H]1C[C@H]3[C@H](N(C)C)C(O)=C(C(N)=O)C(=O)[C@@]3(O)C(O)=C1C2=O [MINO, minocycline, reference compound] |  |  |  |  |  |  |  |  |  |  |  |  |  |  |  |  |  |  |  |  | MIC50 (clinically isolated MRSA [2]): 0.2 µg/mL (≈ 0.437 µM); MIC90 (clinically isolated MRSA [2]): 1.5 µg/mL (≈ 3.28 µM)
8 | Cc1nnc(SCC2=C(C(=O)O)N3C(=O)[C@@H](NC(=O)Cn4cnnn4)[C@H]3SC2)s1 [CEZ, cefazolin, reference compound] | > 100 | > 100 | 1.56 (≈ 3.43 µM) | 0.2 (≈ 0.44 µM) | 1.56 (≈ 3.43 µM) | 6.25 (≈ 13.8 µM) | 0.1 (≈ 0.22 µM) | 25 (≈ 55 µM) | 12.5 (≈ 27.6 µM) | 3.13 (≈ 6.89 µM) | 0.78 (≈ 1.72 µM) | 0.2 (≈ 0.44 µM) | 12.5 (≈ 27.5 µM) | 100 (≈ 220 µM) | 0.2 (≈ 0.44 µM) | 3.13 (≈ 6.89 µM) | 3.13 (≈ 6.89 µM) | > 100 | 50 (≈ 110 µM) | > 100 | MIC (M. luteus ATCC 9341): 0.78 µg/mL (≈ 1.72 µM)
9 | Nc1nc(/C(=N/O)C(=O)N[C@@H]2C(=O)N3C(C(=O)[O-])=C(C[n+]4cccc(-c5csc(N)n5)c4)CS[C@H]23)cs1 [Compound (9), 7β-[2-(2-aminothiazol-4-yl)-2-syn-hydroxyiminoacetamido]-3-[[3-(2-aminothiazol-4-yl)-1-pyridinio]methyl]-3-cephem-4-carboxylic acid chloride] | 12.5 | 0.78 | 0.2 | 0.2 | 0.39 | 0.39 | 0.05 | 0.1 | 1.56 | 0.39 | 0.2 | 0.2 | 0.2 | 3.13 | 0.2 | 0.78 | 0.2 | 0.39 | 1.56 | 3.13 | MIC (M. luteus ATCC 9341): 0.05 µg/mL; MIC50 (clinically isolated MRSA [1]; [3]): 1.48 µg/mL; MIC90 (clinically isolated MRSA [1]; [4]): 2.92 µg/mL
